Reference: article PMC6677754, “In silico design and optimization of selective membranolytic anticancer peptides” (Scientific Reports, 2019)
Peptide text beside a SMILES is read from it.

Legend:
[1] = tested on: human erythrocytes; experiment: Hemolysis assay; type: cell-based; settings: for Eryhtr. HC50 /µM: 1 h
Method in brief: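 Washed human erythrocytes (5% v/v in PBS) were mixed with peptide plated as a 200–6.25 μM series, in triplicate, for 1 h at 37 °C. Released haemoglobin in the supernatant was read at 540 nm, scaled to 0.1% Triton X-100 (100%) and PBS (0%). HC50 came from a 3-parameter log-logistic fit.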

[2] = tested on: CCRF-CEM; experiment: NCI-60 screening; type: cell-based, human; settings: CCRF-CEM (Leukemia); log GI50; 48 h, sulforhodamine B, 10^-4 to 10^-8 M
Protocol: (§1) NCI-60 screening procedure
(§2) The NCI-60 screening procedure was performed by the Developmental Therapeutics Program of the National Cancer Institute. The procedure was performed as previously described24 in 96-well microtiter plates. Each peptide was tested in a 5-concentration assay, starting at 10^-4 M and diluting 10-fold to the lowest 10^-8 M concentration. The peptides were incubated for 48 h and the cell concentration was assayed by using the sulforhodamine B assay25 and optical density measurements. The growth inhibition (GI50) value24, measures the growth inhibitory power of the drug agent. The GI50 value is the concentration of the test drug for which the condition in Eq. S1 is met, where T is the optical density of the test well after a 48-h exposure to the peptide, T0 the optical density before applying the peptide drug and C the control optical density of a well where no peptide was applied.

[3] = tested on: COLO 205; experiment: NCI-60 screening; type: cell-based, human; settings: COLO 205 (Colon); log GI50; 48 h, sulforhodamine B, 10^-4 to 10^-8 M
Protocol: as §1, §2

[4] = tested on: DU-145; experiment: NCI-60 screening; type: cell-based, human; settings: DU-145 (Prostate); log GI50; 48 h, sulforhodamine B, 10^-4 to 10^-8 M
Protocol: as §1, §2

[5] = tested on: HOP-62; experiment: NCI-60 screening; type: cell-based, human; settings: HOP-62 (Lung); log GI50; 48 h, sulforhodamine B, 10^-4 to 10^-8 M
Protocol: as §1, §2

[6] = tested on: HS-578T; experiment: NCI-60 screening; type: cell-based, human; settings: HS-578T (Breast); log GI50; 48 h, sulforhodamine B, 10^-4 to 10^-8 M
Protocol: as §1, §2

[7] = tested on: LOX IMVI; experiment: NCI-60 screening; type: cell-based, human; settings: LOX IMVI (Melanoma); log GI50; 48 h, sulforhodamine B, 10^-4 to 10^-8 M
Protocol: as §1, §2

[8] = tested on: M14; experiment: NCI-60 screening; type: cell-based, human; settings: M14 (Melanoma); log GI50; 48 h, sulforhodamine B, 10^-4 to 10^-8 M
Protocol: as §1, §2

[9] = tested on: MCF7; experiment: NCI-60 screening; type: cell-based, human; settings: MCF7 (Breast); log GI50; 48 h, sulforhodamine B, 10^-4 to 10^-8 M
Protocol: as §1, §2

[10] = tested on: MDA-MB-231/ATCC; experiment: NCI-60 screening; type: cell-based, human; settings: MDA-MB-231/ATCC (Breast); log GI50; 48 h, sulforhodamine B, 10^-4 to 10^-8 M
Protocol: as §1, §2

[11] = tested on: MOLT-4; experiment: NCI-60 screening; type: cell-based, human; settings: MOLT-4 (Leukemia); log GI50; 48 h, sulforhodamine B, 10^-4 to 10^-8 M
Protocol: as §1, §2

[12] = tested on: NCI-H522; experiment: NCI-60 screening; type: cell-based, human; settings: NCI-H522 (Lung); log GI50; 48 h, sulforhodamine B, 10^-4 to 10^-8 M
Protocol: as §1, §2

[13] = tested on: OVCAR-4; experiment: NCI-60 screening; type: cell-based, human; settings: OVCAR-4 (Ovarian); log GI50; 48 h, sulforhodamine B, 10^-4 to 10^-8 M
Protocol: as §1, §2

[14] = tested on: OVCAR-8; experiment: NCI-60 screening; type: cell-based, human; settings: OVCAR-8 (Ovarian); log GI50; 48 h, sulforhodamine B, 10^-4 to 10^-8 M
Protocol: as §1, §2

[15] = tested on: SK-MEL-5; experiment: NCI-60 screening; type: cell-based, human; settings: SK-MEL-5 (Melanoma); log GI50; 48 h, sulforhodamine B, 10^-4 to 10^-8 M
Protocol: as §1, §2

[16] = tested on: SK-OV-3; experiment: NCI-60 screening; type: cell-based, human; settings: SK-OV-3 (Ovarian); log GI50; 48 h, sulforhodamine B, 10^-4 to 10^-8 M
Protocol: as §1, §2

[17] = tested on: SNB-75; experiment: NCI-60 screening; type: cell-based, human; settings: SNB-75 (CNS); log GI50; 48 h, sulforhodamine B, 10^-4 to 10^-8 M
Protocol: as §1, §2

[18] = tested on: T-47D; experiment: NCI-60 screening; type: cell-based, human; settings: T-47D (Breast); log GI50; 48 h, sulforhodamine B, 10^-4 to 10^-8 M
Protocol: as §1, §2

[19] = tested on: U251; experiment: NCI-60 screening; type: cell-based, human; settings: U251 (CNS); log GI50; 48 h, sulforhodamine B, 10^-4 to 10^-8 M
Protocol: as §1, §2

Compound | Log GI (M) [2] | Log GI (M) [3] | Log GI (M) [4] | Log GI (M) [5] | Log GI (M) [6] | Log GI (M) [7] | Log GI (M) [8] | Log GI (M) [9] | Log GI (M) [10] | Log GI (M) [11] | Log GI (M) [12] | Log GI (M) [13] | Log GI (M) [14] | Log GI (M) [15] | Log GI (M) [16] | Log GI (M) [17] | Log GI (M) [18] | Log GI (M) [19] | also measured
CC[C@H](C)[C@H](NC(=O)[C@H](CCCCN)NC(=O)[C@H](CCCCN)NC(=O)[C@@H](NC(=O)[C@@H](NC(=O)[C@@H](N)Cc1c[nH]cn1)[C@@H](C)CC)[C@@H](C)CC)C(=O)N[C@@H](CCCNC(=N)N)C(=O)N[C@H](C(=O)N[C@@H](Cc1c[nH]c2ccccc12)C(=O)N[C@@H](Cc1ccc(O)cc1)C(=O)N[C@@H](CCCNC(=N)N)C(=O)N[C@@H](CCCCN)C(=O)N[C@@H](C)C(=O)N[C@@H](Cc1c[nH]c2ccccc12)C(=O)N[C@@H](Cc1c[nH]cn1)C(=O)N[C@H](C(=O)N[C@@H](CC(C)C)C(=O)NCC(=O)N[C@@H](CCCCN)C(=O)N[C@H](C(N)=O)C(C)C)C(C)C)[C@@H](C)O [Off2] (H-HIIKKIRTWYRKAWHVLGKV-NH2) | -5.43 M | -5.68 M | -5.37 M | -5.34 M | -5.45 M | -4.66 M | -5.38 M | -5.69 M | -5.19 M | -4.85 M | -4.96 M | -4.89 M | -5.32 M | -5.40 M | -5.20 M | -4.92 M | -5.72 M | -5.14 M | Eryhtr. HC50 /µM ([1]; red cells of human): > 200 µM
CC[C@H](C)[C@H](NC(=O)[C@H](CCCNC(=N)N)NC(=O)[C@H](Cc1c[nH]c2ccccc12)NC(=O)[C@@H](NC(=O)[C@H](CCCCN)NC(=O)[C@H](CCCCN)NC(=O)[C@@H](NC(=O)[C@@H](NC(=O)[C@@H](NC(=O)[C@H](CCCCN)NC(=O)[C@H](Cc1ccccc1)NC(=O)[C@H](CCCCN)NC(=O)[C@H](CCCCN)NC(=O)[C@H](Cc1ccccc1)NC(=O)[C@@H](NC(=O)[C@@H](N)CCCCN)[C@@H](C)CC)[C@@H](C)O)[C@@H](C)CC)[C@@H](C)CC)C(C)C)C(=O)N[C@@H](Cc1ccccc1)C(=O)NCC(=O)N[C@@H](CCCNC(=N)N)C(=O)N[C@@H](Cc1ccccc1)C(N)=O [AmphiArc2] (H-KIFKKFKTIIKKVWRIFGRF-NH2) | -5.60 M | -5.58 M | -5.77 M | -5.62 M | -5.65 M | -5.53 M | -5.62 M | -5.52 M | -5.72 M | -5.51 M | -5.63 M | -5.67 M | -5.48 M | -5.64 M | -5.50 M | -5.60 M | -5.66 M | -5.52 M | half-effective hemolytic concentration (HC50) against human erythrocytes (in words) ([1]; Fig. 1d, compared with the EC50 against cancer cell lines, N = 3): same low-micromolar range; Eryhtr. HC50 /µM ([1]; Table S2, 5% v/v erythrocytes in PBS added 1:1, peptide 200 to 6.25 µM, 37°C, absorbance 540 nm, 0.1% Triton-X-100 = 100%, mean ± sd, N = 2 independent, three technical replicates): 16 ± 2 µM
